Reference: EP0600342A1, “Hispidospermidin and pharmaceutical compositions” (F. HOFFMANN-LA ROCHE AG, priority 1992, dated 1994)
“Also recorded” adds a separate entry of the source.

Experiments:
[1] = tested on: partially purified rat brain PLC; assay: Inhibitory activity against PLC (hydrolysis of radiolabelled PI); type: biochemical; details: 250 µM PI substrate, 2 mM CaCl₂, Tris-acetate buffer pH 5.5, 20 min at 30 °C; read-out: IC₅₀
Protocol: Inhibitory activity of hispidospermidin against PLC was measured. The assay mixture (0.1 ml) contained 200 mM Tris-acetate buffer (pH 5.5), 2 mM CaCl₂, 250 µM PI (suspended in the buffer, specific activity: 800 dpm/nmole) and enzyme. In the standard assay, 20 µl of inhibitor in 15 mM Tis-HCl buffer (pH 7.5) was added to the substrate suspension (50 µl). The reaction was started with addition of the enzyme solution prepared from partially purified rat brain PLC (30 µl, ca. 5 µg protein) and incubated for 20 min. at 30 °C. The reaction was terminated by adding 0.3 ml of unlabeled PI (200 µM) solution containing 1 mg/ml of bovine serum albumin and 1 mM EGTA, followed by adding of 0.3 ml of 7.5% ice cold trichloroacetic acid containing 3 mM CaCl₂. Under the conditions, the enzyme hydrolyzed about 30 % of substrate in the assay mixture. As a positive control showing 100% inhibition of PLC, 20 µl of 25 mM EDTA was added to the assay mixture. The incubation mixture was kept on ice for 10 min asn centrifuged at 1,700 x g for 10 min. The radioactivity of an aliquot (0.2 ml) of the supernatant was measured by liquid scintillation counter (ALOKA).

[2] = Solubility (physico-chemical properties); type: physicochemical; details: qualitative, by solvent
Acute toxicity = type: in vivo; details: no species, dose or route stated

| Compound | IC50 [1] [µM] | Solubility [2] | Acute toxicity (Acute toxicity) |
| --- | --- | --- | --- |
| CCN(CC)CCCC(C)Nc1c2ccc(Cl)cc2nc2ccc(OC)cc12 (stereo not shown) [Quinacrine] | 314 | – | – |
| C[C@@H]1CC[C@H]2[C@]13CC[C@@]1(C)O[C@]2(C)[C@@H](NCCCCN(C)CCCN(C)C)[C@H]1C3 [Hispidospermidin, hispidospermidin] | 15.7 | Soluble in MeOH, CHCl₃, acetone, acidic water; also recorded: Insoluble in water | not observed |
| NCCCNCCCCNCCCN [Sperimine] | 59.3 | – | – |

The next lines start with results.

| IC50 [1] [µM] | Compound | Solubility [2] | Acute toxicity (Acute toxicity) |
| --- | --- | --- | --- |
| 29.9 | NC[C@H]1O[C@H](O[C@H]2[C@H](O)[C@@H](O[C@H]3O[C@H](CO)[C@@H](O)[C@H](N)[C@H]3O)[C@H](N)C[C@@H]2N)[C@H](N)C[C@@H]1O [Tobramycin] | – | – |
| 150 | CN1CCN(CCCN2c3ccccc3Sc3ccc(C(F)(F)F)cc32)CC1 [Trifluoperazine] | – | – |
